Assay results taken from patent US8648092B2, “Imidazo[1,2-a]pyridine derivatives: preparation and pharmaceutical applications” (MEI Pharma, priority 2005, dated 2014).
pIC50: −log10 of the molar value.

Columns and labels:
[1] = system: Colo205 cells; assay: Cell-based proliferation assay for determination of GI50 values (CyQUANT); design: species or system human; details: Homo sapiens
Method: Cell-Based Proliferation Assay for Determination of GI50 Values
Human cancer cell lines (e.g. Colo205) were obtained from ATCC. Colo205 cells were cultivated in RPMI 1640 containing 2 mM L-Glutamine, 5% FBS, 1.0 mM Na Pyruvate. Colo205 cells were seeded in 96-wells plate at 5000 cells per well. The plates were incubated at 37° C., 5% CO2, for 24 h. Cells were treated with compounds at various concentrations for 96 h. Cell growth was then monitored using CyQUANT® cell proliferation assay (Invitrogen Pte Ltd). Dose response curves were plotted to determine GI50 values for the compounds using XL-fit (ID Business Solution, Emeryville, Calif.). GI50 is defined as the concentration of compound required for 50% inhibition of cell growth.
The cellular or growth inhibition activity results of representative compounds are shown in Table 4 below (unit in the table is micromolar).

[2] = biological target: HDAC1 enzyme (recombinant GST-HDAC1) (Homo sapiens (Human), UniProt Q13547); assay: In vitro HDAC assay for determination of IC50 values (BIOMOL fluorescent-based HDAC activity assay); format: biochemical; details: Flur de lys substrate, 2 h room temperature, read-out: IC50 (HDAC 1)
HDAC1 enzyme (recombinant GST-HDAC1), sequence (Q13547 whole entry): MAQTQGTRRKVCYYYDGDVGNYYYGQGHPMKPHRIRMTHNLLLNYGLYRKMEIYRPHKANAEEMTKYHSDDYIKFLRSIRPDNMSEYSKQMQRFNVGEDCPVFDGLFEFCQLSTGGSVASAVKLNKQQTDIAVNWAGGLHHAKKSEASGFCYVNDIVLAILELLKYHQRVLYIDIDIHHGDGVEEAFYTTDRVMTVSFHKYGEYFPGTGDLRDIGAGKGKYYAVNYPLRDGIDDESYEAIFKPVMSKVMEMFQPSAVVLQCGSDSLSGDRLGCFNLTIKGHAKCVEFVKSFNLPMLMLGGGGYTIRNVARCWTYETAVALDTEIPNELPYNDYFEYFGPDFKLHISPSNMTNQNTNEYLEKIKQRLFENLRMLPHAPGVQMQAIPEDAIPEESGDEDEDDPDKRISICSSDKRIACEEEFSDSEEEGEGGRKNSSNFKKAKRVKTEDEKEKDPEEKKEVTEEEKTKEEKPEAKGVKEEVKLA
Method: Biological Testing and Enzyme Assays Recombinant GST-HDAC1 Protein Expression and Purification
Human cDNA library was prepared using cultured SW620 cells. Amplification of human HDAC1 coding region from this cDNA library was cloned separately into the baculovirus expression pDEST20 vector (GATEWAY Cloning Technology, Invitrogen Pte Ltd). The pDEST20-HDAC1 construct was confirmed by DNA sequencing. Recombinant baculovirus was prepared using the Bac-To-Bac method following the manufacturer's instruction (Invitrogen Pte Ltd).
Expression of GST-HDAC1 was done by infecting SF9 cells (Invitrogen Pte Ltd) with pDEST20-HDAC1 baculovirus at MOI=1 for 48 h. Soluble cell lysate was incubated with pre-equilibrated Glutathione Sepharose 4B beads (Amersham) at 4° C. for 2 h. The beads were washed with PBS buffer for 3 times. The GST-HDAC1 protein was eluted by elution buffer containing 50 mM Tris, pH8.0, 150 mM NaCl, 1% Triton X-100 and 10 mM or 20 mM reduced Glutathione. The purified GST-HDAC1 protein was dialyzed with HDAC storage buffer containing 10 mM Tris, pH7.5, 100 mM NaCl and 3 mM MgCl2. 20% Glycerol was added to purified GST-HDAC1 protein before storage at −80° C.
In Vitro HDAC Assay for Determination of IC50 Values
The assay has been carried out in 96 well format and the BIOMOL fluorescent-based HDAC activity assay has been applied. […] Flur de lys Developer was added and the reaction was incubated for 10 min. Briefly, deacetylation of the substrate sensitizes it to the developer, which then generates a fluorophore. The fluorophore is excited with 360 nm light and the emitted light (460 nm) is detected on a fluorometric plate reader (Tecan Ultra Microplate detection system, Tecan Group Ltd.).
The analytical software, Prism 4.0 (GraphPad Software Inc) has been used to generate IC50 from a series of data.

Structure (SMILES)	GI50 ([1]; COLO 205, 96 h treatment)	pIC50 [2]	GI50 ([1]; COLO 205, 96 h, 96 h treatment)
COc1cc(Nc2c(CCc3ccccc3)nc3ccc(/C=C/C(=O)NO)cn23)cc(OC)c1OC [Compound 1, N-Hydroxy-3-[2-phenethyl-3-(3,4,5-trimethoxy-phenylamino)-imidazo[1,2-a]pyridin-6-yl]-acrylamide]	2100 nM	6.82	
O=C(/C=C/c1ccc2nc(CCc3ccccc3)c(Nc3ccc(N4CCCCC4)cc3)n2c1)NO [Compound 3, N-Hydroxy-3-[2-phenethyl-3-(4-piperidin-1-yl-phenylamino)-imidazo[1,2-a]pyridin-6-yl]-acrylamide]	1900 nM	6.10	
O=C(/C=C/c1ccc2nc(CCc3ccccc3)c(Nc3ccc4c(c3)OCO4)n2c1)NO [Compound 4, 3-[3-(Benzo[1,3]-dioxol-5-ylamino)-2-phenethyl-imidazo[1,2-a]pyridin-6-yl]-N-hydroxy-acrylamide]	2800 nM	6.19	
O=C(/C=C/c1ccc2nc(CCc3ccccc3)c(NC3CCCCC3)n2c1)NO [Compound 6, 3-(3-Cyclohexylamino-2-phenethyl-imidazo[1,2-a]pyridin-6-yl)-N-hydroxy-acrylamide]	42000 nM	5.85	
COCCNc1c(CC(C)(C)C)nc2ccc(/C=C/C(=O)NO)cn12 [Compound 8, 3-[2-(2,2-Dimethyl-propyl)-3-(2-methoxy-ethylamino)-imidazo[1,2-a]pyridin-6-yl]-N-hydroxy-acrylamide]	14000 nM	6.00	
CCCCCc1nc2ccc(/C=C/C(=O)NO)cn2c1NCCOC [Compound 9, N-Hydroxy-3-[3-(2-methoxy-ethylamino)-2-pentyl-imidazo[1,2-a]pyridin-6-yl]-acrylamide]	5300 nM	5.89	
COCCNc1c(CCC(=O)O)nc2ccc(/C=C/C(=O)NO)cn12 [Compound 10, 3-[6-(2-Hydroxycarbamoyl-vinyl)-3-(2-methoxy-ethylamino)-imidazo[1,2-a]pyridin-2-yl]-propionic acid]	39000 nM		
CCc1nc2ccc(/C=C/C(=O)NO)cn2c1NCCOC [Compound 11, 3-[2-Ethyl-3-(2-methoxy-ethylamino)-imidazo[1,2-a]pyridin-6-yl]-N-hydroxy-acrylamide]	> 10000 nM	5.22	
CC(C)(C)Nc1c(C(=O)O)nc2ccc(/C=C/C(=O)NO)cn12 [Compound 12, 3-tert-Butylamino-6-(2-hydroxycarbamoyl-vinyl)-imidazo[1,2-a]pyridine-2-carboxylic acid]	20000 nM		
CCCCNc1c(CCCC)nc2ccc(/C=C/C(=O)NO)cn12 [Compound 13, 3-(2-Butyl-3-butylamino-imidazo[1,2-a]pyridin-6-yl)-N-hydroxy-acrylamide]	8900 nM	6.14	
COCCNc1c(CC(C)CC(C)(C)C)nc2ccc(/C=C/C(=O)NO)cn12 (stereo not shown) [Compound 15, (E)-N-hydroxy-3-(3-(2-methoxyethylamino)-2-(2,4,4-trimethylpentyl)imidazo[1,2-a]pyridin-6-yl)acrylamide]	16000 nM	6.12	
COCCNc1c(CC(C)CC(C)(C)C)nc2c(/C=C/C(=O)NO)cccn12 (stereo not shown) [Compound 16, (E)-N-hydroxy-3-(3-(2-methoxyethylamino)-2-(2,4,4-trimethylpentyl)imidazo[1,2-a]pyridin-8-yl)acrylamide]	20000 nM	< 5.00	
CCCCCCc1nc2ccc(/C=C/C(=O)NO)cn2c1NCCC(=O)NCC [Compound 18, (E)-3-(3-(3-(ethylamino)-3-oxopropylamino)-2-hexylimidazo[1,2-a]pyridin-6-yl)-N-hydroxyacrylamide]	12000 nM	6.20	
CCCCCCc1nc2ccc(/C=C/C(=O)NO)cn2c1NCCC(=O)NCCN(C)C [Compound 19, (E)-3-(3-(3-(2-(dimethylamino)ethylamino)-3-oxopropylamino)-2-hexylimidazo[1,2-a]pyridin-6-yl)-N-hydroxyacrylamide]	24000 nM	6.11	
CCC(CC)NCc1c(C(C)(C)C)nc2cc(C=CC(=O)NO)ccn12 [Compound 68, 3-{2-tert-Butyl-3-[(1-ethyl-propylamino)-methyl]-imidazo[1,2-a]pyridin-7-yl}-N-hydroxy-acrylamide]			1500 nM
CCCCN(CCCC)Cc1c(C)nc2cc(/C=C/C(=O)NO)ccn12 [Compound 81, 3-(3-Dibutylaminomethyl-2-methyl-imidazo[1,2-a]pyridin-7-yl)-N-hydroxy-acrylamide]	800 nM		
CCC(C)CN(CC)Cc1c(C(C)(C)C)nc2cc(/C=C/C(=O)NO)ccn12 (stereo not shown) [Compound 88, 3-(2-tert-Butyl-3-{[ethyl-(2-methyl-butyl)-amino]-methyl}-imidazo[1,2-a]pyridin-7-yl)-N-hydroxy-acrylamide]	2200 nM		
CCCCc1nc2cc(/C=C/C(=O)NO)ccn2c1CN(CC)CC(C)CCC (stereo not shown) [Compound 113, 3-(2-Butyl-3-{[ethyl-(2-methyl-pentyl)-amino]-methyl}-imidazo[1,2-a]pyridin-7-yl)-N-hydroxy-acrylamide]			370 nM
CCN(CCC(C)C)Cc1c(C)nc2cc(/C=C/C(=O)NO)ccn12 [Compound 124, 3-(3-{[Ethyl-(3-methyl-butyl)-amino]-methyl}-2-methyl-imidazo[1,2a]pyridin-7-yl)-N-hydroxy-acrylamide]	110 nM		
CCN(CCC(C)(C)C)Cc1c(CC(C)C)nc2cc(/C=C/C(=O)NO)ccn12 [Compound 136, 3-(3-{[(3,3-Dimethyl-butyl)-ethyl-amino]-methyl}-2-isobutyl-imidazo[1,2-a]pyridin-7-yl)-N-hydroxy-acrylamide]	170 nM		

Second part, the compound after the results:

GI50 ([1]; COLO 205, 96 h treatment)	pIC50 [2]	GI50 ([1]; COLO 205, 96 h, 96 h treatment)	Structure (SMILES)
3900 nM	6.14		O=C(C=Cc1ccc2nc(CCc3ccccc3)c(NCc3ccc4c(c3)OCO4)n2c1)NO [Compound 2, 3-{3-[(Benzo[1,3]-dioxol-5-ylmethyl)-amino]-2-phenethyl-imidazo[1,2-a]pyridin-6-yl}-N-hydroxyacrylamide]
27000 nM	6.46		COCCNc1c(CCc2ccccc2)nc2ccc(/C=C/C(=O)NO)cn12 [Compound 5, N-Hydroxy-3-[3-(2-methoxy-ethylamino)-2-phenethyl-imidazo[1,2-a]pyridin-6-yl]-acrylamide]
9300 nM	5.57		COCCNc1c(C(C)C)nc2ccc(/C=C/C(=O)NO)cn12 [Compound 7, N-Hydroxy-3-[2-isopropyl-3-(2-methoxy-ethylamino)-imidazo[1,2-a]pyridin-6-yl]-acrylamide]
9200 nM	5.57		CC(C)Nc1c(C(C)C)nc2ccc(/C=C/C(=O)NO)cn12 [Compound 14, N-Hydroxy-3-(2-isopropyl-3-isopropylamino-imidazo[1,2-a]pyridin-6-yl)-acrylamide]
9900 nM	6.52		CCCCCc1nc2cc(/C=C/C(=O)NO)ccn2c1NCCOC [Compound 17, (E)-N-hydroxy-3-(3-(2-methoxyethylamino)-2-pentylimidazo[1,2-a]pyridin-7-yl)acrylamide]
1900 nM			CCCCCCc1nc2cc(/C=C/C(=O)NO)ccn2c1NCCC(=O)N(C)CC#N [Compound 31, 3-{3-[2-(Cyanomethyl-methyl-carbamoyl)-ethylamino]-2-hexyl-imidazo[1,2-a]pyridin-7-yl}-N-hydroxy-acrylamide]
		2700 nM	CCCCCCCN(CC)Cc1c(C(C)(C)C)nc2cc(/C=C/C(=O)NO)ccn12 [Compound 94, 3-{2-tert-Butyl-3-[(ethyl-heptyl-amino)-methyl]-imidazo[1,2-a]pyridin-7-yl}-N-hydroxy-acrylamide]
150 nM			CCN(CCC(C)C)Cc1c(CC(C)C)nc2cc(/C=C/C(=O)NO)ccn12 [Compound 135, 3-(3-{[Ethyl-(3-methyl-butyl)-amino]-methyl}-2-isobutyl-imidazo[1,2-a]pyridin-7-yl)-N-hydroxy-acrylamide]
130 nM			CCN(CCC(C)C)Cc1c(CCC(C)C)nc2cc(/C=C/C(=O)NO)ccn12 [Compound 142, 3-[3-{[Ethyl-(3-methyl-butyl)-amino]-methyl}-2-(3-methyl-butyl)-imidazo[1,2-a]pyridin-7-yl]-N-hydroxy-acrylamide]
